Measurements published in patent US20230310399A1, “COMBINATORIAL THERAPEUTIC SYSTEMS AND METHODS THAT INCLUDE SYSTEMIC, CENTRALLY AND PERIPHERALLY ACTING ANALGESICS” (COGNIFISENSE, INC., priority 2020, published 2023).
“Also recorded” adds a separate entry of the source.

Tested on: patient's amount of pain
Assay: Potential patient responses to combinatorial therapy: amount of pain over time (FIGS. 5A-5C)
Type: in vivo, patients
Settings: combinatorial therapeutic system with VRNT; potential individual patient responses
Description: FIGS. 5A-5C illustrate exemplary graphs of potential effects of combinatorial therapeutic systems/methods employing oliceridine and VRNT on a patient's amount of pain over time; and
The synergistic effects of the disclosed combinatorial therapeutic systems/methods can be exemplified in a plurality of responses. For example, FIGS. 5A-5C illustrate a combinatorial therapy using oliceridine (as the systemic, centrally and peripherally acting analgesic) and VRNT (as the artificial sensory experience) with different potential patient responses. As many, if not all, patients may experience the synergistic benefits afforded by the disclosed combinatorial therapeutic systems/methods as an average benefit, the individual-specific responses may be different.

In the case of `COc1ccsc1CNCC[C@@]1(c2ccccn2)CCOC2(CCCC2)C1` [oliceridine], the “patient's amount of pain over time” value is reported as “constant or linear decrease in pain over time; also recorded: cyclical decrease and increase in pain levels over time with an overall decreasing pain level; also recorded: stepwise reduction in pain levels”.
